# Results taken from patent publication US6080771A, “DC107 derivatives” (Kyowa Hakko Kogyo Co., Ltd., priority 1996, dated 2000).
# Key:
# [1] = tested on: Staphylococcus aureus ATCC 6538P; test: Antimicrobial activity, agar dilution method (MIC), SA; format: cell-based; conditions: ATCC6538P, agar dilution, pH 7, read-out: MIC, SA
# Source text: | SA: Staphylococcus aureus ATCC 6538P
# [2] = tested on: HeLa S3 cells; test: HeLa S3 cell growth inhibition test (Neutral Red); format: cell-based; conditions: Homo sapiens, HeLa S3; 72 hours, 37° C.; read-out: HeLa S3 Cell Growth Inhibition Activity, IC50
# Description: In each well of a 96-well microtiter plate was placed 0.1 mL of HeLa S3 cells having a concentration of 8×10^3 cells/mL and prepared in an MEM culture medium containing 10% fetal bovine serum and 2 mM glutamine. After the cells were incubated overnight at 37° C. in a carbon dioxide incubator, a test compound suitably diluted with a medium was added to the wells in an amount of 0.05 mL for each well. The cells were incubated at 37° C. for 72 hours in a carbon dioxide incubator. After the culture supernatant was removed, 0.1 mL of a culture medium containing 0.02% Neutral Red was added to each well. The cells were then incubated at 37° C. for 1 hour in a carbon dioxide incubator to dye the cells. After the culture supernatant was removed, each residue was rinsed once with physiological saline and the pigment was extracted with 0.001N hydrochloric acid/30% ethanol. The absorbance at 550 nm of each extract was measured with a microplate reader. The drug concentration required for the 50% inhibition of cell growth, which is referred to as IC50, was calculated by comparing the absorbance for untreated cells with those for cells treated with the drug in known concentrations.
# [3] = tested on: Bacillus substilis NO. 10707; test: Antimicrobial activity, agar dilution method (MIC), BS; format: cell-based; conditions: NO.10707, agar dilution, pH 7, read-out: MIC, BS
# Source text: | BS: Bacillus substilis NO. 10707
# [4] = tested on: Klebisiella pneumoniae ATCC 10031; test: Antimicrobial activity, agar dilution method (MIC), KP; format: cell-based; conditions: agar dilution, pH 7; read-out: MIC, KP
# Source text: | KP: Klebisiella pneumoniae ATCC 10031
# [5] = tested on: Escherichia coli ATCC 26; test: Antimicrobial activity, agar dilution method (MIC), EC; format: cell-based; conditions: ATCC26, agar dilution, pH 7, read-out: MIC, EC
# Source text: | EC: Escherichia coli ATCC 26
# [6] = tested on: Sarcoma 180 mouse solid tumor; test: Antitumor activity against Sarcoma 180 mouse solid tumor; format: in vivo, male ddY mice; conditions: Sarcoma-180, iv, 168 h, single i.v., tumor volume on day 7 from transplant, read-out: T/C (tumor volume ratio treated/control)
# Description: To a ddY mouse were intraperitoneally transplanted 5×10^6 sarcoma 180 cells. On the seventh day from the transplant, the cells were collected from the ascites, washed once with sterilized physiological saline, and then diluted with sterilized physiological saline to prepare a cell suspension having a concentration of 5×10^7 cells/mL. This suspension was transplanted in an amount of 0.01 mL to a subcutaneous part of the right axilla of each of male ddY mice each weighing 20±1 g.
# A test compound was dissolved in physiological saline containing polyoxyethylene sorbitan monolaurate. At 24 hours after the tumor transplant, 0.2 mL of the solution was intravenously administered to the tail of each of a group of five mice.
# [7] = tested on: Enterococcus hirae ATCC 10541; conditions: pH 7
# Description: Antimicrobial activity was determined by the agar dilution method using a culture medium (pH 7) prepared by dissolving 3 g of Bacto-Tryptone (manufactured by Difco, Co.), 3 g of meat extract, 1 g of yeast extract, 1 g of glucose, and 16 g of agar in 1 l of water.
# EH: Enterococcus hirae ATCC 10541
# [8] = tested on: various bacteria; conditions: background, Japanese Published Unexamined Patent Application No. 112988/89; cited from earlier work
# [9] = background, Japanese Published Unexamined Patent Application No. 112988/89; cited from earlier work
SMILES,MIC [1] [µg/mL],IC50 [2] [nM],MIC [3] [µg/mL],MIC [4] [µg/mL],"MIC, EH [7] [µg/mL]",MIC [5] [µg/mL],response vs control in vivo at 4 mg/kg ([6]; 4.0 mg/kg) [%],response vs control in vivo at 8 mg/kg ([6]; 8.0 mg/kg) [%],response vs control in vivo at 16 mg/kg ([6]; 16 mg/kg) [%],antimicrobial activity [8],antitumor activity [9]
COCCOCCOCC(=O)OC1/C=C(\C)CCC2(CC(=O)NC(C)c3nc(cs3)/C=C\C=C\C1=O)[S+]([O-])SC(=O)C2(C)O (stereo not shown) [Compound 2],0.13,25,0.13,0.23,0.23,1.8,30,,,,
COCCOCCOCC(=O)OC1/C=C(\C)CCC2(C(C)(O)C(=O)SCc3oc(=O)oc3C)CC(=O)N(C(C)c3nc(cs3)/C=C\C=C\C1=O)[S+]2[O-] (stereo not shown) [Compound 12],42,30,42,42,42,4.2,,39,,,
C/C1=C\C(O)C(=O)/C=C/C=C\c2csc(n2)C(C)NC(=O)CC2(CC1)[S+]([O-])SC(=O)C2(C)O (stereo not shown) [DC107],,,,,,,,,,antimicrobial activity against various bacteria,antitumor activity

# The next lines start with results.
MIC [1] [µg/mL],IC50 [2] [nM],MIC [3] [µg/mL],MIC [4] [µg/mL],"MIC, EH [7] [µg/mL]",SMILES,MIC [5] [µg/mL],response vs control in vivo at 4 mg/kg ([6]; 4.0 mg/kg) [%],response vs control in vivo at 8 mg/kg ([6]; 8.0 mg/kg) [%],response vs control in vivo at 16 mg/kg ([6]; 16 mg/kg) [%],antimicrobial activity [8],antitumor activity [9]
5.2,35,2.6,,2.6,COCCOCCOCCOCCOCC(=O)OC1/C=C(\C)CCC2(C(C)(O)C(=O)SCc3oc(=O)oc3C)CC(=O)N(C(C)c3nc(cs3)/C=C\C=C\C1=O)[S+]2[O-] (stereo not shown) [Compound 14],,,,,,
5.2,,2.6,2.6,1.3,COCCOCCOCC(=O)OCCOCCOCCOCCOCC(=O)OC1/C=C(\C)CCC2(C(C)(O)C(=O)SCc3oc(=O)oc3C)CC(=O)N(C(C)c3nc(cs3)/C=C\C=C\C1=O)[S+]2[O-] (stereo not shown) [Compound 39],,,,38,,
